Experimental data taken from the supplement of paper PMC11061612.

Columns and labels:
Capivasertib = compound: C1CN(CCC1(C(=O)N[C@@H](CCO)C2=CC=C(C=C2)Cl)N)C3=NC=NC4=C3C=CN4 [Capivasertib]; conditions: max 10 µM
Method in brief: (§1)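 After 24 hours at 37°C and 5% CO2 in 1536-well plates holding 7.5 μl of DMEM/F12 or RPMI with 10% FBS, cancer cell lines were dosed for 72 hours, with final DMSO typically 0.2%. Viability came from CellTiter-Glo 2.0 luminescence, scaled between the means of blank wells and DMSO wells. A non-linear mixed effects model fitted a two-parameter logistic curve to each dose response to give the single-agent IC50.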

AZD1775 = compound: C=CCn1c(=O)c2cnc(Nc3ccc(N4CCN(C)CC4)cc3)nc2n1-c1cccc(C(C)(C)O)n1 [AZD1775]; conditions: max 3 µM
Method in brief: as §1

Trametinib = compound: CC(=O)Nc1cccc(-n2c(=O)n(C3CC3)c(=O)c3c(Nc4ccc(I)cc4F)n(C)c(=O)c(C)c32)c1 [Trametinib]; conditions: max 1 µM
Method in brief: as §1

Palbociclib = compound: CC(=O)c1c(C)c2cnc(Nc3ccc(N4CCNCC4)cn3)nc2n(C2CCCC2)c1=O [Palbociclib]; conditions: max 10 µM
Method in brief: as §1

AZD1390 = compound: CC(C)n1c(=O)n(C)c2cnc3cc(F)c(-c4ccc(OCCCN5CCCCC5)nc4)cc3c21 [AZD1390]; conditions: max 0.3 µM
Method in brief: as §1

Venetoclax = compound: CC1(C)CCC(CN2CCN(c3ccc(C(=O)NS(=O)(=O)c4ccc(NCC5CCOCC5)c([N+](=O)[O-])c4)c(Oc4cnc5[nH]ccc5c4)c3)CC2)=C(c2ccc(Cl)cc2)C1 [Venetoclax]; conditions: max 1 µM
Method in brief: as §1

Dasatinib = compound: CC1=C(C(=CC=C1)Cl)NC(=O)C2=CN=C(S2)NC3=CC(=NC(=N3)C)N4CCN(CC4)CCO [Dasatinib]; conditions: max 2 µM
Method in brief: as §1

SG3199 = compound: CC1=CN2[C@@H](C1)C=NC3=CC(=C(C=C3C2=O)OC)OCCCCCOC4=C(C=C5C(=C4)N=C[C@@H]6CC(=CN6C5=O)C)OC [SG3199]; conditions: max 0.001 µM
Method in brief: as §1

AZD2811 = compound: CCN(CCO)CCCOc1ccc2c(Nc3cc(CC(=O)Nc4cccc(F)c4)[nH]n3)ncnc2c1 [AZD2811]; conditions: max 1 µM
Method in brief: as §1

SN-38 = compound: CCc1c2c(nc3ccc(O)cc13)-c1cc3c(c(=O)n1C2)COC(=O)[C@]3(O)CC [SN-38]; conditions: max 0.3 µM
Method in brief: as §1

AZD0156 = compound: CN(C)CCCOc1ccc(-c2ccc3ncc4c(c3c2)n(C2CCOCC2)c(=O)n4C)cn1 [AZD0156]; conditions: max 3 µM
Method in brief: as §1

AZD4320 = compound: CN(CC[C@H](CSC1=CC=CC=C1)NC2=C(C=C(C=C2)S(=O)(=O)NC(=O)C3=CC=C(C=C3)N4CCC(CC4)[C@H](C5=CC=CC=C5C6=CC=C(C=C6)Cl)O)S(=O)(=O)C(F)(F)F)CCO [AZD4320]; conditions: max 1 µM
Method in brief: as §1

Alisertib = compound: COc1cc(Nc2ncc3c(n2)-c2ccc(Cl)cc2C(c2c(F)cccc2OC)=NC3)ccc1C(=O)O [Alisertib]; conditions: max 10 µM
Method in brief: as §1

Gefitinib = compound: COc1cc2ncnc(Nc3ccc(F)c(Cl)c3)c2cc1OCCCN1CCOCC1 [Gefitinib]; conditions: max 10 µM
Method in brief: as §1

Prexasertib = compound: COc1cccc(OCCCN)c1-c1cc(Nc2cnc(C#N)cn2)n[nH]1 [Prexasertib]; conditions: max 1 µM
Method in brief: as §1

Doxorubicin = compound: COc1cccc2c1C(=O)c1c(O)c3c(c(O)c1C2=O)C[C@@](O)(C(=O)CO)C[C@@H]3O[C@H]1C[C@H](N)[C@H](O)[C@H](C)O1 [Doxorubicin]; conditions: max 1 µM
Method in brief: as §1

AZD5153 = compound: COc1nnc2ccc(N3CCC(c4ccc(OCCN5CCN(C)C(=O)[C@H]5C)cc4)CC3)nn12 [AZD5153]; conditions: max 1 µM
Method in brief: as §1

Lapatinib = compound: CS(=O)(=O)CCNCc1ccc(-c2ccc3ncnc(Nc4ccc(OCc5cccc(F)c5)c(Cl)c4)c3c2)o1 [Lapatinib]; conditions: max 10 µM
Method in brief: as §1

AZD8186 = compound: C[C@@H](Nc1cc(F)cc(F)c1)c1cc(C(=O)N(C)C)cc2c(=O)cc(N3CCOCC3)oc12 [AZD8186]; conditions: max 3 µM
Method in brief: as §1

Crizotinib = compound: C[C@@H](Oc1cc(-c2cnn(C3CCNCC3)c2)cnc1N)c1c(Cl)ccc(F)c1Cl [Crizotinib]; conditions: max 10 µM
Method in brief: as §1

Savolitinib = compound: C[C@@H](c1ccc2nccn2c1)n1nnc2ncc(-c3cnn(C)c3)nc21 [Savolitinib]; conditions: max 1 µM
Method in brief: as §1

AZD6738 = compound: C[C@@H]1COCCN1C2=NC(=NC(=C2)C3(CC3)[S@](=N)(=O)C)C4=C5C=CNC5=NC=C4 [AZD6738]; conditions: max 10 µM
Method in brief: as §1

AZD5991 = compound: Cc1c2c(nn1C)CSCc1cc(n(C)n1)CSc1cc(c3ccccc3c1)OCCCc1c(C(=O)O)n(C)c3c-2c(Cl)ccc13 [AZD5991]; conditions: max 1 µM
Method in brief: as §1

AZD7648 = compound: Cc1cc2ncnn2cc1Nc1ncc2c(n1)n(C1CCOCC1)c(=O)n2C [AZD7648]; conditions: max 10 µM
Method in brief: as §1

Taselisib = compound: Cc1nc(-c2cn3c(n2)-c2ccc(-c4cnn(C(C)(C)C(N)=O)c4)cc2OCC3)n(C(C)C)n1 [Taselisib]; conditions: max 10 µM
Method in brief: as §1

Selumetinib = compound: Cn1cnc2c(F)c(Nc3ccc(Br)cc3Cl)c(C(=O)NOCCO)cc21 [Selumetinib]; conditions: max 10 µM
Method in brief: as §1

Olaparib = compound: O=C(c1cc(Cc2n[nH]c(=O)c3ccccc23)ccc1F)N1CCN(C(=O)C2CC2)CC1 [Olaparib]; conditions: max 10 µM
Method in brief: as §1

Cell Line: 5637 (Bladder Carcinoma)
- IC50, cell viability 72 h (Capivasertib): > 10 µM
- IC50, cell viability 72 h (AZD1775): 0.385 µM
- IC50, cell viability 72 h (Trametinib): > 1 µM
- IC50, cell viability 72 h (Palbociclib): > 10 µM
- IC50, cell viability 72 h (AZD1390): > 0.3 µM
- IC50, cell viability 72 h (Venetoclax): > 1 µM
- IC50, cell viability 72 h (Dasatinib): 0.26 µM
- IC50, cell viability 72 h (SG3199): > 0.001 µM
- IC50, cell viability 72 h (AZD2811): 0.251 µM
- IC50, cell viability 72 h (SN-38): 0.0379 µM
- IC50, cell viability 72 h (AZD0156): > 3 µM
- IC50, cell viability 72 h (AZD4320): > 1 µM
- IC50, cell viability 72 h (Alisertib): 1.01 µM
- IC50, cell viability 72 h (Gefitinib): > 10 µM
- IC50, cell viability 72 h (Prexasertib): 0.0532 µM
- IC50, cell viability 72 h (Doxorubicin): > 1 µM
- IC50, cell viability 72 h (AZD5153): 0.9 µM
- IC50, cell viability 72 h (Lapatinib): 7.56 µM
- IC50, cell viability 72 h (AZD8186): > 3 µM
- IC50, cell viability 72 h (Crizotinib): > 10 µM
- IC50, cell viability 72 h (Savolitinib): > 1 µM
- IC50, cell viability 72 h (AZD6738): 6.46 µM
- IC50, cell viability 72 h (AZD5991): > 1 µM
- IC50, cell viability 72 h (AZD7648): > 10 µM
- IC50, cell viability 72 h (Taselisib): 8.9 µM
- IC50, cell viability 72 h (Selumetinib): > 10 µM
- IC50, cell viability 72 h (Olaparib): > 10 µM

Cell Line: A204 (Rhabdomyosarcoma)
- IC50, cell viability 72 h (Capivasertib): > 10 µM
- IC50, cell viability 72 h (AZD1775): > 3 µM
- IC50, cell viability 72 h (Trametinib): > 1 µM
- IC50, cell viability 72 h (Palbociclib): > 10 µM
- IC50, cell viability 72 h (AZD1390): > 0.3 µM
- IC50, cell viability 72 h (Venetoclax): > 1 µM
- IC50, cell viability 72 h (Dasatinib): 1.39 µM
- IC50, cell viability 72 h (SG3199): > 0.001 µM
- IC50, cell viability 72 h (AZD2811): > 1 µM
- IC50, cell viability 72 h (SN-38): 0.132 µM
- IC50, cell viability 72 h (AZD0156): > 3 µM
- IC50, cell viability 72 h (AZD4320): > 1 µM
- IC50, cell viability 72 h (Alisertib): > 10 µM
- IC50, cell viability 72 h (Gefitinib): > 10 µM
- IC50, cell viability 72 h (Prexasertib): 0.362 µM
- IC50, cell viability 72 h (Doxorubicin): 0.528 µM
- IC50, cell viability 72 h (AZD5153): > 1 µM
- IC50, cell viability 72 h (Lapatinib): > 10 µM
- IC50, cell viability 72 h (AZD8186): > 3 µM
- IC50, cell viability 72 h (Crizotinib): > 10 µM
- IC50, cell viability 72 h (Savolitinib): > 1 µM
- IC50, cell viability 72 h (AZD6738): > 10 µM
- IC50, cell viability 72 h (AZD5991): > 1 µM
- IC50, cell viability 72 h (AZD7648): > 10 µM
- IC50, cell viability 72 h (Taselisib): 4.32 µM
- IC50, cell viability 72 h (Selumetinib): > 10 µM
- IC50, cell viability 72 h (Olaparib): > 10 µM
